Measurements reported in patent US7842808B2, “Anti-migraine spirocycles” (Bristol-Myers Squibb Company, priority 2002, dated 2010).
Where two headings read alike, the source gives them in different places.

Legend:
[1] = biological target: T1, CGRP receptor (SK-N-MC cell membranes) (Homo sapiens, UniProt O60894+Q16602); experiment: CGRP Binding Assay ([125I]-CGRP radioligand binding, SK-N-MC homogenate)
T1 construct: endogenous in cells; host or cells: SK-N-MC cells (membrane homogenate)

[2] = biological target: T2, human CGRP receptor (SK-N-MC cells) (Homo sapiens, UniProt O60894+Q16602); experiment: Cyclic AMP Assay, functional antagonism of CGRP-induced cyclic AMP formation; assay type: cell-based
T2 construct: SK-N-MC cells that endogenously express the human CGRP receptor; endogenous in cells; host or cells: SK-N-MC cells
T2 sequence (Q16602 23-461): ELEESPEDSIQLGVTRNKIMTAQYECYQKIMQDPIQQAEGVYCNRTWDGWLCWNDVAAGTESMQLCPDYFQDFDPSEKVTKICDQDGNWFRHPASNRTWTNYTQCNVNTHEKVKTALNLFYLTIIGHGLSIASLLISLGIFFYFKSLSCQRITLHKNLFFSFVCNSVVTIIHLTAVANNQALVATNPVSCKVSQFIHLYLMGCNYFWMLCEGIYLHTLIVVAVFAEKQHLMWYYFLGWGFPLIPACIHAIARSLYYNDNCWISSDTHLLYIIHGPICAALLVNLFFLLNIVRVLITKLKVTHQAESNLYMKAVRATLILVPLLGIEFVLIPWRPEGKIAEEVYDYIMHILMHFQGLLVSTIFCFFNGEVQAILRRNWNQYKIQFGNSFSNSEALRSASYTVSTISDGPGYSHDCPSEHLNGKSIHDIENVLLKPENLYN
T2 sequence (O60894 27-148): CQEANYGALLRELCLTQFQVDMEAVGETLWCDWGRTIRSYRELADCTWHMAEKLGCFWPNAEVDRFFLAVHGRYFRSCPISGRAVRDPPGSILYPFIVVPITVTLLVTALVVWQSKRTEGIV
Procedure: Functional Antagonism. Antagonism of the compounds of invention was determined by measuring the formation of cyclic AMP (adenosine 3′5′-cyclic monophosphate) in SK-N-MC cells that endogenously express the human CGRP receptor. […] For cyclic AMP measurements SK-N-MC cells were incubated with 0.3 nM CGRP alone or in the presence of various concentrations of the compounds of invention for 30 min at room temperature. […] Cyclic AMP was extracted using the lysis reagent and its concentration was determined by radioimmunoassay using RPA559 cAMP SPA Direct Screening Assay Kit (Amersham Pharmacia Biotech). IC50 values were calculated using Excel fit.

[3] = displacement of [125I]-CGRP, SK-N-MC homogenate, read-out: CGRP binding IC50
[4] = SK-N-MC cells, 0.3 nM CGRP, read-out: cAMP Function IC50

T1 sequence (Q16602 23-461): as the sequence (Q16602 23-461) above
T1 sequence (O60894 27-148): as the sequence (O60894 27-148) above

SMILES	IC50 [1, 3] [nM]	IC50 [2, 4] [nM]	IC50 [1] [nM]	IC50 [2] [nM]
O=C(NC(Cc1ccc2[nH]ncc2c1)C(=O)N1CCC(N2CCCCC2)CC1)N1CCC(n2c(=O)[nH]c3ccccc32)CC1 (racemic) [Example 4, (±)-4-(2-Oxo-2,3-dihydro-benzoimidazol-1-yl)-piperidine-1-carboxylic acid[2-[1,4′]bipiperidinyl-1′-yl-1-(1H-indazol-5-ylmethyl)-2-oxo-ethyl]-amide]	10 to 100	10 to 100	–	–
CC(C)CN1CCN(C(=O)C(Cc2ccc3[nH]ccc3c2)NC(=O)N2CCC(n3c(=O)[nH]c4ccccc43)CC2)CC1 (racemic) [Example 7, (±)-4-(2-Oxo-2,3-dihydro-benzoimidazol-1-yl)-piperidine-1-carboxylic acid[1-(1H-indol-5-ylmethyl)-2-(4-isobutyl-piperazin-1-yl)-2-oxo-ethyl]-amide]	100 to 1000	100 to 1000	–	–
O=C(NC(Cc1ccc2[nH]ccc2c1)C(=O)N1CCC2(CC1)OCCO2)N1CCC(n2c(=O)[nH]c3ccccc32)CC1 (racemic) [Example 8, (±)-4-(2-Oxo-2,3-dihydro-benzoimidazol-1-yl)-piperidine-1-carboxylic acid[2-(1,4-dioxa-8-aza-spiro[4.5]dec-8-yl)-1-(1H-indol-5-ylmethyl)-2-oxo-ethyl]-amide]	–	–	100 to 1000	100 to 1000
CC(C)CN1CCN(C(=O)C(Cc2ccc3[nH]ncc3c2)NC(=O)N2CCC(n3c(=O)[nH]c4ccccc43)CC2)CC1 (racemic) [Example 9, (±)-4-(2-Oxo-2,3-dihydro-benzoimidazol-1-yl)-piperidine-1-carboxylic acid[1-(1H-indazol-5-ylmethyl)-2-(4-isobutyl-piperazin-1-yl)-2-oxo-ethyl]-amide]	10 to 100	10 to 100	–	–
O=C(NC(Cc1ccc2[nH]ncc2c1)C(=O)N1CCC2(CC1)OCCO2)N1CCC(n2c(=O)[nH]c3ccccc32)CC1 (racemic) [Example 10, (±)-4-(2-Oxo-2,3-dihydro-benzoimidazol-1-yl)-piperidine-1-carboxylic acid[2-(1,4-dioxa-8-aza-spiro[4.5]dec-8-yl)-1-(1H-indazol-5-ylmethyl)-2-oxo-ethyl]-amide]	–	–	100 to 1000	10 to 100
O=C(NC(Cc1ccc2[nH]ncc2c1)C(=O)N1CCC2(CC1)OCCO2)N1CCC(N2Cc3ccccc3NC2=O)CC1 (racemic) [Example 11, (±)-4-(2-Oxo-1,4-dihydro-2H-quinazolin-3-yl)-piperidine-1-carboxylic acid[2-(1,4-dioxa-8-aza-spiro[4.5]dec-8-yl)-1-(1H-indazol-5-ylmethyl)-2-oxo-ethyl]-amide]	10 to 100	–	–	10 to 100
COC(=O)C(Cc1cc(C)c2[nH]ncc2c1)NC(=O)N1CCC(N2Cc3ccccc3NC2=O)CC1 (racemic) [Example 12, (±)-3-(7-Methyl-1H-indazol-5-yl)-2-{[4-(2-oxo-1,4-dihydro-2H-quinazolin-3-yl)-piperidine-1-carbonyl]-amino}-propionic acid methyl ester]	10 to 100	100 to 1000	–	–
Cc1cc(CC(NC(=O)N2CCC(N3Cc4ccccc4NC3=O)CC2)C(=O)O)cc2cn[nH]c12 (racemic) [Example 15, (±)-3-(7-Methyl-1H-indazol-5-yl)-2-{[4-(2-oxo-1,4-dihydro-2H-quinazolin-3-yl)-piperidine-1-carbonyl]-amino}-propionic acid]	100 to 1000	100 to 1000	–	–
Cc1cc(CC(NC(=O)N2CCC(N3Cc4ccccc4NC3=O)CC2)C(=O)N2CCN(c3ccccn3)CC2)cc2cn[nH]c12 (racemic) [Example 22, (±)-4-(2-Oxo-1,4-dihydro-2H-quinazolin-3-yl)-piperidine-1-carboxylic acid[1-(7-methyl-1H-indazol-5-ylmethyl)-2-oxo-2-(4-pyridin-2-yl-piperazin-1-yl)-ethyl]-amide]	< 10	< 10	–	–
Cc1cc(CC(NC(=O)N2CCC3(CC2)NC(=O)Nc2ccccc23)C(=O)N2CCCCC2)cc2cn[nH]c12 (racemic) [Example 24, (±)-1-(7-Methyl-1H-indazol-5-ylmethyl)-2-(1-piperidinyl)-2-oxoethyl]-2′,3′-dihydro-2′-oxospiro-[piperidine-4,4′-(1H)-quinazoline]-1-carboxamide]	10 to 100	10 to 100	–	–
Cc1cc(CC(NC(=O)N2CCC3(CC2)OC(=O)Nc2ccccc23)C(=O)N2CCCCC2)cc2cn[nH]c12 (racemic) [Example 26, (±)-1-(7-Methyl-1H-indazol-5-ylmethyl)-2-(1-piperidinyl)-2-oxoethyl]-1′,2′-dihydro-2′-oxospiro-[4H-3′,1-benzoxazine-4,4′-piperidine]-1-carboxamide]	10 to 100	10 to 100	–	–
Cc1cc(CC(NC(=O)N2CCC3(CC2)OC(=O)Nc2ccccc23)C(=O)N(C)C)cc2cn[nH]c12 (racemic) [Example 27, (±)-[1-Dimethylcarbamoyl-2-(7-methyl-1H-indazol-5-yl)-ethyl]-1′,2′-dihydro-2′-oxospiro-[4H-3′,1-benzoxazine-4,4′-piperidine]-1-carboxamide]	10 to 100	100 to 1000	–	–
Cc1cc(CC(NC(=O)N2CCC3(CC2)CC(=O)Nc2ccccc23)C(=O)N2CCC(N3CCCCC3)CC2)cc2cn[nH]c12 (racemic) [Example 31, (±)-1-(7-Methyl-1H-indazol-5-ylmethyl)-2-[1,4-bipiperidin]-1-yl-2-oxoethyl]3′,4′-dihydro-2′-oxospiro-[piperidine-4,4′-(1H)-quinoline]-1-carboxamide]	< 10	< 10	–	–
Cc1cc(CC(NC(=O)N2CCC3(CC2)N=C(c2ccccc2)NC3=O)C(=O)N2CCC(N3CCCCC3)CC2)cc2cn[nH]c12 (racemic) [Example 34, (±)-4-Oxo-2-phenyl-1,3,8-triaza-spiro[4,5]dec-1-ene-8-carboxylic acid {1-(7-methyl-1H-indazol-5-yl methyl)-2-[1,4]bipiperidinyl-1′-yl-2-oxo-ethyl}-amide]	< 10	< 10	–	–
Cc1cc(CC(NC(=O)N2CCC3(CC2)N=C(c2ccccc2)NC3=O)C(=O)N2CCCCC2)cc2cn[nH]c12 (racemic) [Example 35, (±)-4-Oxo-2-phenyl-1,3,8-triaza-spiro[4,5]dec-1-ene-8-carboxylic acid {1-(7-methyl-1H-indazol-5-yl methyl)-2-[1-piperidinylyl]-2-oxo-ethyl}-amide]	10 to 100	10 to 100	–	–
Cc1cc(CC(NC(=O)N2CCC3(CC2)N=C(c2ccccc2)NC3=O)C(=O)N(C)C)cc2cn[nH]c12 (racemic) [Example 36, (±)-4-Oxo-2-phenyl-1,3,8-triaza-spiro[4,5]dec-1-ene-8-carboxylic acid[1-dimethylcarbamoyl-2-(7-methyl-1H-indazol-5-yl)-ethyl]amide]	10 to 100	10 to 100	–	–
CC1(C)CN(CC(NC(=O)N2CCC(N3Cc4ccccc4NC3=O)CC2)C(=O)N2CCC(N3CCCCC3)CC2)Cc2cn[nH]c21 (racemic) [Example 56, (±)-4-(2-Oxo-1,4-dihydro-2H-quinazolin-3-yl)-piperidine-1-carboxylic acid[2-[1,4′]bipiperidinyl-1′-yl-1-(7,7-dimethyl-1,4,6,7-tetrahydro-pyrazolo[4,3-c]pyridin-5-ylmethyl)-2-oxo-ethyl]-amide]	< 10	< 10	–	–
Cc1cc(CC(CC(=O)N2CCC(N3Cc4ccccc4NC3=O)CC2)C(=O)N2CC(C)OC(C)C2)cc2cn[nH]c12 (racemic) [Example 73, (±)-1-(2,6-Dimethyl-morpholin-4-yl)-2-(7-methyl-1H-indazol-5-ylmethyl)-4-[4-(2-oxo-1,4-dihydro-2H-quinazolin-3-yl)-piperidin-1-yl]-butane-1,4-dione]	10 to 100	10 to 100	–	–
Cc1cc(CC(CC(=O)N2CCC(N3Cc4ccccc4NC3=O)CC2)C(=O)N2CCOCC2)cc2cn[nH]c12 (racemic) [Example 75, (±)-2-(7-Methyl-1H-indazol-5-ylmethyl)-1-morpholin-4-yl-4-[4-(2-oxo-1,4-dihydro-2H-quinazolin-3-yl)-piperidin-1-yl]-butane-1,4-dione]	< 10	10 to 100	–	–
Cc1cc(CC(CC(=O)N2CCC3(CC2)OC(=O)Nc2ccccc23)C(=O)N2CCCCC2)cc2cn[nH]c12 (racemic) [Example 77, (±)-2-(7-Methyl-1H-indazol-5-ylmethyl)-1-(piperidin-1-yl)-4-[1′,2′-dihydro-2′-oxospiro-[4H-3′,1-benzoxazine-4,4′-piperidinyl]-butane-1,4-dione]	10 to 100	10 to 100	–	–
Cc1cc(CC(CC(=O)N2CCC(N3Cc4ccccc4NC3=O)CC2)C(=O)N2CCCCC2)cc2cn[nH]c12 (racemic) [Example 78, (±)-2-(7-Methyl-1H-indazol-5-ylmethyl)-4-[4-(2-oxo-1,4-dihydro-2H-quinazolin-3-yl)-piperidin-1-yl]-1-piperidin-1-yl-butane-1,4-dione]	< 10	< 10	–	–
O=C1Nc2ccccc2C2(CCN(C(=O)CC(Cc3ccc4[nH]ncc4c3)C(=O)N3CCC(N4CCCCC4)CC3)CC2)O1 (racemic) [Example 79, (±)-1-[1,4′]Bipiperidinyl-1′-yl-2-(1H-indazol-5-ylmethyl)-4-[1′,2′-dihydro-2′-oxospiro-[4H-3′,1-benzoxazine-4,4′-piperidinyl]-butane-1,4-dione]	10 to 100	100 to 1000	–	–
